Here are results for one molecule from patent US11458180B2, “Environmentally-friendly preparation method of composition containing anti-inflammatory active ingredients and use of composition” (SHANGHAI JAKA BIOTECH CO., LTD., priority 2019, dated 2022).

The assay deals with PGE-2. As to the kind of experiment: Anti-inflammatory effect: LPS-induced PGE-2 expression by ELISA. The settings on record: LPS 1 μg/ml stimulated Raw 264.7 cells, 10 μM, relative to LPS group. It is filed as cell-based, mouse. The protocol:
In this experiment, Raw 264.7 cells were stimulated by LPS, then cell culture was collected, and the expression of the inflammatory factor PGE-2 was determined by enzyme-linked immunosorbent assay (ELISA). The compositions obtained in the examples and comparative examples were compared in terms of the influence on anti-inflammatory effects. Raw264.7 cells and LPS were used for the experiment.
Raw264.7 cells at logarithmic growth phase were collected as follows: culture medium was discarded, and the cells were washed twice with PBS, added with 0.25% trypsin, and placed at 37° C. for 5 min; digestion was terminated with DMEM complete culture medium including 10% FBS and 1% PS, and a resulting solution was centrifuged at 1,000 rpm for 3 min; and a resulting supernatant was discarded, and obtained cells were resuspended in complete culture medium and counted. A cell concentration was adjusted to 5×10^5 cells/ml, and a resulting cell suspension was added to a 96-well plate at 100 µl/well. […]
After the treatment, cell culture was collected to a new 96-well plate, and the expression of PGE-2 was determined by ELISA according to instructions of a kit. A PGE-2 content (E) was calculated according to a standard curve, and relative to the LPS group, a relative inhibition rate was calculated for each sample (inhibition rate (%)=(1-Etest substance group/ELPS group)×100).
For orientation: ELISA stands for enzyme-linked immunosorbent assay.

For the molecule `C[C@@H]1C[C@H]2[C@@H]3CCC4=CC(=O)C=C[C@]4(C)[C@@]3(F)[C@@H](O)C[C@]2(C)[C@@]1(O)C(=O)CO` [Dex, dexamethasone], the “inhibition rate of PGE-2 expression” value is 75.27%.
